Data published in PubChem BioAssay (NCI).
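48-hour exposure; five concentrations; linearly interpolated endpoints. GI50 marks 50% less growth. TGI marks complete inhibition of growth.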

What was measured:
Assay in all cases: growth of human tumour cells (NCI), 48 h
786-0 renal = tested on: 786-0 renal
A498 renal = tested on: A498 renal
A549 NSCLC = tested on: A549 NSCLC
ACHN renal = tested on: ACHN renal
BT-549 breast = tested on: BT-549 breast
CAKI-1 renal = tested on: CAKI-1 renal
CCRF-CEM leukemia = tested on: CCRF-CEM leukemia
COLO 205 colon = tested on: COLO 205 colon
DU-145 prostate = tested on: DU-145 prostate
EKVX NSCLC = tested on: EKVX NSCLC
HCC-2998 colon = tested on: HCC-2998 colon
HCT-116 colon = tested on: HCT-116 colon
HCT-15 colon = tested on: HCT-15 colon
HL-60(TB) leukemia = tested on: HL-60(TB) leukemia
HOP-62 NSCLC = tested on: HOP-62 NSCLC
HOP-92 NSCLC = tested on: HOP-92 NSCLC
HS 578T breast = tested on: HS 578T breast
HT29 colon = tested on: HT29 colon
IGROV1 ovarian = tested on: IGROV1 ovarian
K-562 leukemia = tested on: K-562 leukemia
KM12 colon = tested on: KM12 colon
LOX IMVI melanoma = tested on: LOX IMVI melanoma
M14 melanoma = tested on: M14 melanoma
MALME-3M melanoma = tested on: MALME-3M melanoma
MCF7 breast = tested on: MCF7 breast
MDA-MB-231 breast = tested on: MDA-MB-231 breast
MDA-MB-435 = tested on: MDA-MB-435
MOLT-4 leukemia = tested on: MOLT-4 leukemia
NCI-H226 lung = tested on: NCI-H226 lung
NCI-H23 lung = tested on: NCI-H23 lung
NCI-H460 lung = tested on: NCI-H460 lung
NCI-H522 lung = tested on: NCI-H522 lung
NCI/ADR-RES ovarian = tested on: NCI/ADR-RES ovarian
OVCAR-3 ovarian = tested on: OVCAR-3 ovarian
OVCAR-4 ovarian = tested on: OVCAR-4 ovarian
OVCAR-5 ovarian = tested on: OVCAR-5 ovarian
OVCAR-8 ovarian = tested on: OVCAR-8 ovarian
PC-3 prostate = tested on: PC-3 prostate
RPMI-8226 leukemia = tested on: RPMI-8226 leukemia
RXF 393 renal = tested on: RXF 393 renal
SF-268 CNS = tested on: SF-268 CNS
SF-295 CNS = tested on: SF-295 CNS
SF-539 CNS = tested on: SF-539 CNS
SK-MEL-2 melanoma = tested on: SK-MEL-2 melanoma
SK-MEL-28 melanoma = tested on: SK-MEL-28 melanoma
SK-MEL-5 melanoma = tested on: SK-MEL-5 melanoma
SK-OV-3 ovarian = tested on: SK-OV-3 ovarian
SN12C renal = tested on: SN12C renal
SNB-19 CNS = tested on: SNB-19 CNS
SNB-75 CNS = tested on: SNB-75 CNS
SR leukemia = tested on: SR leukemia
SW-620 colon = tested on: SW-620 colon
T-47D breast = tested on: T-47D breast
TK-10 renal = tested on: TK-10 renal
U251 CNS = tested on: U251 CNS
UACC-257 melanoma = tested on: UACC-257 melanoma
UACC-62 melanoma = tested on: UACC-62 melanoma
UO-31 renal = tested on: UO-31 renal

## O=C1/C=C/[C@@H](O)[C@@H]2C[C@@H](O)C[C@H]2/C=C/CCC[C@H](CCOCc2ccccc2)O1
786-0 renal
  GI50: 22.3 nM
  TGI: 53.7 nM
A498 renal
  GI50: 17.8 nM
  TGI: 123 nM
A549 NSCLC
  GI50: 66 nM
  TGI: > 100000 nM
ACHN renal
  GI50: 317 nM
  TGI: > 100000 nM
BT-549 breast
  GI50: 117 nM
  TGI: > 21900 nM
CAKI-1 renal
  GI50: 331 nM
  TGI: > 100000 nM
CCRF-CEM leukemia
  GI50: 301 nM
  TGI: > 100000 nM
COLO 205 colon
  GI50: 29.2 nM
  TGI: 80.9 nM
DU-145 prostate
  GI50: 412 nM
  TGI: > 100000 nM
EKVX NSCLC
  GI50: 141 nM
  TGI: > 100000 nM
HCC-2998 colon
  GI50: 110 nM
HCT-116 colon
  GI50: 162 nM
  TGI: 379 nM
HCT-15 colon
  GI50: 290 nM
  TGI: 12900 nM
HL-60(TB) leukemia
  GI50: 282 nM
  TGI: 3310 nM
HOP-62 NSCLC
  GI50: 73.8 nM
  TGI: > 100000 nM
HOP-92 NSCLC
  GI50: 234 nM
  TGI: 909 nM
HS 578T breast
  GI50: < 22.6 nM
  TGI: > 100000 nM
HT29 colon
  GI50: 27.4 nM
  TGI: 212 nM
IGROV1 ovarian
  GI50: 335 nM
  TGI: > 26300 nM
K-562 leukemia
  GI50: 327 nM
  TGI: > 100000 nM
KM12 colon
  TGI: 31 nM
LOX IMVI melanoma
  GI50: 35.2 nM
  TGI: 168 nM
M14 melanoma
  GI50: 40.3 nM
  TGI: 13200 nM
MALME-3M melanoma
  GI50: 36.5 nM
  TGI: 428 nM
MCF7 breast
  GI50: 39.9 nM
  TGI: 177 nM
MDA-MB-231 breast
  GI50: 102 nM
  TGI: 267 nM
MDA-MB-435
  GI50: 53.9 nM
  TGI: > 100000 nM
MOLT-4 leukemia
  GI50: 305 nM
  TGI: > 43700 nM
NCI-H226 lung
  GI50: 18.8 nM
  TGI: 251 nM
NCI-H23 lung
  GI50: 105 nM
  TGI: 714 nM
NCI-H460 lung
  GI50: 380 nM
  TGI: > 100000 nM
NCI-H522 lung
  GI50: 234 nM
  TGI: 577 nM
NCI/ADR-RES ovarian
  GI50: 46.9 nM
  TGI: 5270 nM
OVCAR-3 ovarian
  GI50: 39 nM
  TGI: 187 nM
OVCAR-4 ovarian
  GI50: 64.3 nM
  TGI: > 41200 nM
OVCAR-5 ovarian
  GI50: 246 nM
  TGI: > 100000 nM
OVCAR-8 ovarian
  GI50: 52.3 nM
PC-3 prostate
  GI50: 164 nM
  TGI: > 100000 nM
RPMI-8226 leukemia
  GI50: 297 nM
  TGI: 20600 nM
RXF 393 renal
  GI50: < 13.9 nM
  TGI: 43.6 nM
SF-268 CNS
  GI50: 37.6 nM
  TGI: > 100000 nM
SF-295 CNS
  GI50: 51 nM
  TGI: > 100000 nM
SF-539 CNS
  GI50: 112 nM
  TGI: > 100000 nM
SK-MEL-2 melanoma
  GI50: 172 nM
  TGI: 649 nM
SK-MEL-28 melanoma
  GI50: < 17 nM
  TGI: 84.9 nM
SK-MEL-5 melanoma
  GI50: < 13.4 nM
  TGI: 22.7 nM
SK-OV-3 ovarian
  GI50: 48.1 nM
  TGI: > 100000 nM
SN12C renal
  GI50: 272 nM
  TGI: > 100000 nM
SNB-19 CNS
  GI50: 138 nM
  TGI: > 100000 nM
SNB-75 CNS
  GI50: < 27.7 nM
  TGI: > 95400 nM
SR leukemia
  GI50: 142 nM
SW-620 colon
  GI50: 99.4 nM
  TGI: 822 nM
T-47D breast
  GI50: 192 nM
  TGI: 556 nM
TK-10 renal
  GI50: 186 nM
  TGI: 658 nM
U251 CNS
  GI50: 97.8 nM
  TGI: > 100000 nM
UACC-257 melanoma
  GI50: 16.1 nM
  TGI: 2320 nM
UACC-62 melanoma
  GI50: 37.2 nM
  TGI: 12600 nM
UO-31 renal
  GI50: 70.1 nM
  TGI: 26600 nM
